This is an account of results in ChEMBL document CHEMBL1909046, “DrugMatrix in vitro pharmacology data”.

Assay [1] addresses T1, Alpha-2C adrenergic receptor (Homo sapiens, UniProt P18825).
T1 sequence (P18825 whole entry): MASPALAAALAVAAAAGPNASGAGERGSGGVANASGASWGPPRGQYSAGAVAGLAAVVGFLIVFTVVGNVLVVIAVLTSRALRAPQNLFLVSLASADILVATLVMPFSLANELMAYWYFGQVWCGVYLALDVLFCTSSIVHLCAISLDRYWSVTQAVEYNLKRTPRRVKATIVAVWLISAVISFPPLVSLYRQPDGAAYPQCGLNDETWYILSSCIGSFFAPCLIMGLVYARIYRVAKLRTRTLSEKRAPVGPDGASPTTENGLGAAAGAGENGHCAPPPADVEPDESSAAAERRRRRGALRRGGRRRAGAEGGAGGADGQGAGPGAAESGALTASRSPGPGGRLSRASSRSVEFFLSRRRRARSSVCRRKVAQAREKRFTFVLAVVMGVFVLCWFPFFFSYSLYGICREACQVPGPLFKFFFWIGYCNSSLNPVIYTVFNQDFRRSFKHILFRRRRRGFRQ
The assay is described as follows: DRUGMATRIX: Adrenergic Alpha-2C radioligand binding (ligand: [3H] MK-912). In kind it is cell membranes, Sf9, Membrane.

Assay [2] is described as follows: DRUGMATRIX: GABAA, Muscimol, Central radioligand binding (ligand: [3H] Muscimol). The following applies: Not Active = under 50% inhibition at 10 µM. In kind it is cell membranes, Rattus norvegicus, Wistar, Brain, Membrane.
The nature of assay [3]: DRUGMATRIX: Imidazoline I2, Central radioligand binding (ligand: [3H] Idazoxan). In kind it is cell membranes, Rattus norvegicus, Wistar, Cerebral cortex, Membrane. Particulars: Not Active = under 50% inhibition at 10 µM.
Assay [4] deals with T2, Alpha-2A adrenergic receptor (Homo sapiens, UniProt P08913).
T2 sequence (P08913 whole entry): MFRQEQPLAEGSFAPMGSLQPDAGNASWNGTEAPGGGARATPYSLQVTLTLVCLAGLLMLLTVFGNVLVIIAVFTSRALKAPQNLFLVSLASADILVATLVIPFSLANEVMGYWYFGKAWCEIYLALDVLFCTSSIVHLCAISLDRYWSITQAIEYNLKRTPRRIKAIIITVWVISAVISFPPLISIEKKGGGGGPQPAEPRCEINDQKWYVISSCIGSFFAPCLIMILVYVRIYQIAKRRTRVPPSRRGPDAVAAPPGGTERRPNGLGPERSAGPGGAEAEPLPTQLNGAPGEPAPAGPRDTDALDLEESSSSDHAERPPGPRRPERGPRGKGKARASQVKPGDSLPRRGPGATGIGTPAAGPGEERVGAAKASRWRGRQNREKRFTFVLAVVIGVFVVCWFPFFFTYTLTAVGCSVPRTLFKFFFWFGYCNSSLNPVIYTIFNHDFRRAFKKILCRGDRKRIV
In kind it is cell membranes, Sf9, Membrane. Particulars: sf9.

Assay [5] addresses Vascular endothelial growth factor receptor 1 (Homo sapiens, UniProt P17948). Briefly: biochemical. In kind it is cell-based, HUVEC. The following applies: huvec.

Chain of Vascular endothelial growth factor receptor 1 (P17948 whole entry): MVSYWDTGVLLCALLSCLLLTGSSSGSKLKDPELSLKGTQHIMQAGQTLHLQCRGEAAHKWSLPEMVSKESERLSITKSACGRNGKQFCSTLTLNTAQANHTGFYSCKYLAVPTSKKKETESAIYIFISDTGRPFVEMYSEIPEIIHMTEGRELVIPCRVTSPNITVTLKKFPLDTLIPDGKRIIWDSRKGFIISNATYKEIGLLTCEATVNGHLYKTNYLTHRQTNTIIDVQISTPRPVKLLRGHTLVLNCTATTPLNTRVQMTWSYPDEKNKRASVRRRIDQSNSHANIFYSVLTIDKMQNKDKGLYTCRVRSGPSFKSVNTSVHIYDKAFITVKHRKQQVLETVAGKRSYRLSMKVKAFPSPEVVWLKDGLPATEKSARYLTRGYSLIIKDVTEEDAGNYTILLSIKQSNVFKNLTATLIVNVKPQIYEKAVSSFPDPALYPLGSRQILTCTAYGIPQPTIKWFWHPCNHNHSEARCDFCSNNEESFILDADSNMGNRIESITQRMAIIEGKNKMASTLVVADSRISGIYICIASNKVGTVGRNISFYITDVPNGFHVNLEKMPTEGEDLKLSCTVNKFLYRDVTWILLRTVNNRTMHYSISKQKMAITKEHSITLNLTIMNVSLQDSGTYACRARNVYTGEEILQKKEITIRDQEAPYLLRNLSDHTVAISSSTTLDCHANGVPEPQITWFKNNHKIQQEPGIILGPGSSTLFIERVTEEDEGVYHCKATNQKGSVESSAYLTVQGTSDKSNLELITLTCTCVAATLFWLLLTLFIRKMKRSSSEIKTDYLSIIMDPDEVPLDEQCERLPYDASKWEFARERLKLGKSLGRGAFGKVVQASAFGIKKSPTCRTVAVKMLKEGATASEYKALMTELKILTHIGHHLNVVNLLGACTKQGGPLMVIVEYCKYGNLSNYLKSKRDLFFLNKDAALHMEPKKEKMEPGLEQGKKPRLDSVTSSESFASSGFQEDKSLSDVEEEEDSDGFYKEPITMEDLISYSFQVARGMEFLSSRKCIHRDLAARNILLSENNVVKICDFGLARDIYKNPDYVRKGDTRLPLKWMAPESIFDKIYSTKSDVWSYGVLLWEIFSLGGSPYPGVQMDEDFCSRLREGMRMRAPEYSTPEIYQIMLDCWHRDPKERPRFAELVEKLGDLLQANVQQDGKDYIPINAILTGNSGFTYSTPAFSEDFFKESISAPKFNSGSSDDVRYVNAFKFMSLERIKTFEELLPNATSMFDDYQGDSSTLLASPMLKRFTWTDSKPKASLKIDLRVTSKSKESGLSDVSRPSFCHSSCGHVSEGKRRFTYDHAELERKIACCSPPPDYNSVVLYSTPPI

For the compound `CCS(=O)(=O)CCn1c([N+](=O)[O-])cnc1C` [TINIDAZOLE], the IC50 result in assay [1] (sf9), in assay [2], in assay [3], in assay [4] and in assay [5] was “Not Active” throughout. Also, the Ki result in assay [2] and in assay [3] was “Not Active” throughout.
For the compound `C[C@@H]1C[C@H]2[C@@H]3CCC4=CC(=O)C=C[C@]4(C)C3=CC[C@]2(C)[C@H]1C(=O)CN1CCN(c2cc(N3CCCC3)nc(N3CCCC3)n2)CC1` [TIRILAZAD], the IC50 in assay [1] (read-out: IC50) is 7900 nM; in assay [2] it was “Not Active”; in assay [3], “Not Active”; in assay [4] it was “Not Active”; in assay [5], “Not Active”. Moreover, the inhibitory constant (Ki) is 1150 nM in assay [1] (read-out: Ki), “Not Active” in assay [2] and “Not Active” in assay [3].
Regarding `NC[C@H]1O[C@H](O[C@H]2[C@H](O)[C@@H](O[C@H]3O[C@H](CO)[C@@H](O)[C@H](N)[C@H]3O)[C@H](N)C[C@@H]2N)[C@H](N)C[C@@H]1O` [TOBRAMYCIN], the IC50 entry in assay [1] (sf9), in assay [2], in assay [3], in assay [4] and in assay [5] was “Not Active” each time. Moreover, the Ki entry in assay [2] and in assay [3] was “Not Active” in each case.
As to `O=C(O)C(Cl)(Cl)Cl` [TRICHLOROACETIC ACID], the IC50 result in assay [1] (sf9), in assay [2], in assay [3], in assay [4] and in assay [5] was “Not Active” in each case. In addition, the Ki result in assay [2] and in assay [3] was “Not Active” throughout.
In the case of `COc1ccc(CN2CCNCC2)c(OC)c1OC` [TRIMETAZIDINE], the IC50 entry in assay [1] (sf9), in assay [2], in assay [3], in assay [4] and in assay [5] was “Not Active” each time. For the same compound, the Ki entry in assay [2] and in assay [3] was “Not Active” in each case.
Turning to `CC(=O)O[C@H]1C[C@@H]2CC[C@@H]3[C@H](CC[C@@]4(C)[C@H]3C[C@H]([N+]3(C)CCCCC3)[C@@H]4OC(C)=O)[C@@]2(C)C[C@@H]1N1CCCCC1.[Br-]` [VECURONIUM BROMIDE], the half-maximal inhibitory concentration (IC50) result in assay [1] (sf9), in assay [2], in assay [3], in assay [4] and in assay [5] was “Not Active” in each case. Also, the Ki result in assay [2] and in assay [3] was “Not Active” each time.
Take `COc1cc(C(=O)NS(=O)(=O)c2ccccc2C)ccc1Cc1cn(C)c2ccc(NC(=O)OC3CCCC3)cc12` [ZAFIRLUKAST]: the IC50 result in assay [1] (sf9), in assay [2], in assay [3], in assay [4] and in assay [5] was “Not Active” each time. The Ki entry in assay [2] and in assay [3] was “Not Active” each time.
For `Cc1cn([C@H]2C[C@H](N=[N+]=[N-])[C@@H](CO)O2)c(=O)[nH]c1=O` [ZIDOVUDINE], the 50% inhibitory concentration (IC50) entry in assay [1] (sf9), in assay [2], in assay [3], in assay [4] and in assay [5] was “Not Active” in each case. In addition, the Ki result in assay [2] and in assay [3] was “Not Active” each time.
In the case of STANNOUS FLUORIDE, the IC50 entry in assay [1] (sf9), in assay [2], in assay [3], in assay [4] and in assay [5] was “Not Active” throughout. Besides, the Ki result in assay [1] (sf9), in assay [2], in assay [3], in assay [4] and in assay [5] was “Not Active” in each case.
Take THIMEROSAL: the IC50 is 5040 nM in assay [1] (sf9, read-out: IC50); “Not Active” in assay [2]; “Not Active” in assay [3]; 532 nM in assay [4] (read-out: IC50); “Not Active” in assay [5]. The Ki in assay [1] (sf9, read-out: Ki) is 732 nM; in assay [2], “Not Active”; in assay [3], “Not Active”; in assay [4] (read-out: Ki), 200 nM; in assay [5], “Not Active”.

A word on the IC50: it is the concentration needed to halve the response being measured. A word on the Ki: it is the equilibrium dissociation constant of an inhibitor or competing ligand from its target.
